Counter-ions that a name gives are not always drawn. Like-named read-outs stand apart in the source and are kept apart here.
Columns and labels:
[1] = system: ICR mice; test: Increasing study of fecal protein concentration in mice; type: in vivo; conditions: Mus musculus, 5 mg/kg oral, feces collected 3 to 9 hours after, control = 1, read-out: protein increasing activity in feces, fold vs control
Experimental: 2. Increasing Study of Fecal Protein Concentration in Mice
For the experiment, 6-weeks old ICR mice (male) were used, and the experiment was carried out in five per group. After fasting the mice for 15 hours, the control group was forcibly orally administered with a 0.5% methyl cellulose (MC) solution, and the test drug group was forcibly orally administered (5 mg/kg) with a solution or suspension obtained by dissolving or suspending the compound in the 0.5% MC solution. The fasting was stopped immediately thereafter, free feeding (CE-2) started and then the feces were collected from after 3 hours to after 9 hours. All of the obtained feces were dissolved and suspended in 6 mL of distilled water, and centrifuged for 10 minutes at 3000 rpm. The protein concentration in the supernatant was measured by a Bradford method, and the amount of the protein in 1 g of feces was calculated by dividing the protein concentration in the feces by the total weight of feces. Further, the efficacy was investigated from the ratio to the control. For the compounds that were evaluated multiple times, the average values were calculated.
For some representative compounds, the protein increasing activities in feces are shown in Table 2, assuming a value for the control as 1. Ex in the table represents the Example No. as denoted below of the test compound.

[2] = target: human recombinant trypsin (r-h trypsin) (Homo sapiens (Human), UniProt P07477); test: Inhibitory activity of trypsin enzyme (human recombinant trypsin, BZiPAR fluorescent substrate); type: biochemical; conditions: human recombinant trypsin 0.088 μg/mL, 30 minutes at room temperature
Experimental: (§1) 1. Inhibitory Activity of Trypsin Enzyme in Humans and Mice
(§2) In the experiment, human recombinant trypsin (r-h trypsin; manufactured by WAKO, cat. #206-17171) and mouse trypsin (m-trypsin; purified from the mouse small intestine contents by the present Company) were used.
(§3) The outline of the measurement method is shown below.
(§4) The compound was dissolved in dimethyl sulfoxide (DMSO), and diluted to an arbitrary concentration (A). A was 100-fold diluted with a buffer (0.1 M Tris (pH 8.0), 0.15 M NaCl, 10 mM CaCl2, 0.05% Brij38) (B). The r-h trypsin was diluted with a buffer to 0.088 μg/mL, and the m-trypsin was diluted with a buffer to 1/50 (C). […] The substrate solution of a substrate for the enzyme reaction, BZiPAR, (Rhodamine Reference Substrate) was diluted with a buffer to 5 μmol/L (D). B; 5 μL, C; 5 μL, and D; 10 μL were added to a 384-plate, and incubated at room temperature for 30 minutes. The fluorescent signals were detected with Ex/Em=497/520 using Tecan Safire Fluorometer. […] Based on the obtained inhibitory rates, IC50 values (nM) were calculated from the non-linear regression. The test was carried out in the same manner, using camostat as a control compound.
(§5) Ex in the table represents the Example No. as denoted below.

[3] = target: mouse trypsin (m-trypsin); test: Inhibitory activity of trypsin enzyme (mouse trypsin purified from small intestine contents, BZiPAR fluorescent substrate); type: biochemical; conditions: mouse trypsin diluted 1/50, BZiPAR substrate, 30 minutes at room temperature
From the text: as §1, §2
The method to extract the trypsin from the mouse small intestine is shown below.
The small intestine contents and the gastrointestinal tract of 10 mice were suspended in PBS using Polytron and subjected to centrifugation at 15,000×g several times. The supernatant was mixed at 4° C. for 16 hours with a Benzamidine Sepharose 4 Fast Flow Resin (GE Healthcare: #17-5123-10). After washing the resin with PBS, m-trypsin was eluted with a glycine elution buffer (pH 3.0).
as §3, §4, §5

SMILES | response vs control in vivo at 5 mg/kg ([1]; po, 9 h) | IC50 [2] | response vs control in vivo at 5 mg/kg [1] | IC50 [3]
N=C(N)Nc1ccc(C(=O)Oc2ccc(CCC(=O)N(CC(=O)O)Cc3csc(C(=O)O)c3)c(Cl)c2)cc1 [Example 63] | 184% | – | – | –
CC(C)(Oc1ccc(C[C@H](NC(=O)Cc2ccc(OC(=O)c3ccc(NC(=N)N)cc3)cc2Cl)C(=O)O)cc1)C(=O)O [Example 95] | – | 0.66 nM | 188% | 0.64 nM
N=C(N)Nc1ccc(C(=O)Oc2ccc(CC(=O)N(CC(=O)O)[C@@H](Cc3ccccc3)C(=O)O)c(Cl)c2)cc1 [Example 40] | – | 0.5 nM | – | 0.45 nM
N=C(N)Nc1ccc(C(=O)Oc2ccc(CC(=O)N[C@@H](Cc3ccc(C(F)(F)F)cc3)C(=O)O)c(Cl)c2)cc1 [Example 31] | – | 0.31 nM | – | 0.34 nM
N=C(N)Nc1ccc(C(=O)Oc2ccc(CCN(CC(=O)O)Cc3cccc(C(=O)O)c3)c(Cl)c2)cc1 [Example 65] | – | 0.4 nM | – | 0.45 nM
CN(C(=O)CN(CC(=O)O)Cc1cccc(C(=O)O)c1)c1ccc(OC(=O)c2ccc(NC(=N)N)cc2)cc1Cl [Example 94] | – | 0.42 nM | – | 0.39 nM
N=C(N)Nc1ccc(C(=O)Oc2ccc(CCC(=O)N(CCC(=O)O)Cc3cccc(C(=O)O)c3)c(Cl)c2)cc1 [Example 45] | – | 0.57 nM | 165% | 0.66 nM
N=C(N)Nc1ccc(C(=O)Oc2ccc(CC(=O)N[C@@H](Cc3ccc(O)cc3)C(=O)O)c(Cl)c2)cc1 [Example 1, N-({4-[(4-carbamimidamidobenzoyl)oxy]-2-chlorophenyl}acetyl)-L-tyrosine hydrochloride] | – | 0.17 nM | – | 0.19 nM
N=C(N)Nc1ccc(C(=O)Oc2ccc(CCC(=O)NCc3ccccc3C(=O)O)c(Cl)c2)cc1 [Example 52] | – | 0.3 nM | 182% | 0.39 nM
N=C(N)Nc1ccc(C(=O)Oc2ccc(CC(=O)N[C@@H](Cc3ccc(OCC(=O)O)cc3)C(=O)O)c(Cl)c2)cc1 [Example 56] | – | 0.88 nM | 202% | 0.64 nM
N=C(N)Nc1ccc(C(=O)Oc2ccc(CC(=O)N[C@@H](Cc3cccc(F)c3)C(=O)O)c(Cl)c2)cc1 [Example 30] | – | 0.26 nM | – | 0.19 nM
C[C@H](C(=O)O)N(Cc1csc(C(=O)O)c1)C(=O)c1ccc2cc(OC(=O)c3ccc(NC(=N)N)cc3)ccc2n1 [Example 102] | – | 0.29 nM | 231% | 0.3 nM
N=C(N)Nc1ccc(C(=O)Oc2ccc(CC(=O)N[C@@H](Cc3ccc(C(=O)O)cc3)C(=O)O)c(Cl)c2)cc1 [Example 13] | – | 0.91 nM | 185% | 0.84 nM
N=C(N)Nc1ccc(C(=O)Oc2ccc3nc(C(=O)Nc4ccc(CC(=O)O)cc4)ccc3c2)cc1 [Example 22] | – | 0.29 nM | – | 0.2 nM
N=C(N)Nc1ccc(C(=O)Oc2ccc(CC(=O)N[C@@H](Cc3ccc(Cl)cc3)C(=O)O)c(Cl)c2)cc1 [Example 15] | 167% | – | – | –
N=C(N)Nc1ccc(C(=O)Oc2ccc(CCC(=O)N(CC(=O)O)Cc3ccccc3)c(Cl)c2)cc1 [Example 62] | – | 0.29 nM | – | 0.17 nM
N=C(N)Nc1ccc(C(=O)Oc2ccc3nc(C(=O)N[C@@H](Cc4ccc(OCC(=O)O)cc4)C(=O)O)ccc3c2)cc1 [Example 71] | – | 0.18 nM | – | 0.23 nM
N=C(N)Nc1ccc(C(=O)Oc2ccc(CC(=O)N[C@@H](Cc3ccccc3)C(=O)O)c(-c3ccccc3)c2)cc1 [Example 17] | – | 0.43 nM | – | 0.27 nM
N=C(N)Nc1ccc(C(=O)Oc2ccc3nc(C(=O)N(CC(=O)O)Cc4ccc(CC(=O)O)cc4)ccc3c2)cc1 [Example 113] | 193% | – | – | –
N=C(N)Nc1ccc(C(=O)Oc2ccc(CC(=O)N[C@@H](Cc3c[nH]cn3)C(=O)O)c(Cl)c2)cc1 [Example 2, N-({4-[(4-carbamimidamidobenzoyl)oxy]-2-chlorophenyl}acetyl)-L-histidine 2 hydrochloride] | – | 0.92 nM | – | 0.49 nM
N=C(N)Nc1ccc(C(=O)Oc2ccc(CCC(=O)N(CC(=O)O)Cc3cccc(CC(=O)O)c3)c(Cl)c2)cc1 [Example 78] | – | 0.49 nM | 167% | 0.39 nM

SMILES | response vs control in vivo at 5 mg/kg ([1]; po, 9 h) | IC50 [2] | response vs control in vivo at 5 mg/kg [1] | IC50 [3]
N=C(N)Nc1ccc(C(=O)Oc2ccc(CCC(=O)N(CC(=O)O)Cc3cc(C(=O)O)cc(C(=O)O)c3)c(Cl)c2)cc1 [Example 64] | – | 0.37 nM | 198% | 0.7 nM
N=C(N)Nc1ccc(C(=O)Oc2ccc3nc(C(=O)N(CC(=O)O)Cc4cccc(C(=O)O)c4)ccc3c2)cc1 [Example 59] | – | 0.27 nM | 217% | 0.31 nM
N=C(N)Nc1ccc(C(=O)Oc2ccc(CCCC(=O)N(CC(=O)O)Cc3cccc(C(=O)O)c3)c(Cl)c2)cc1 [Example 51] | – | 0.46 nM | – | 0.47 nM
N=C(N)Nc1ccc(C(=O)Oc2ccc3cc(C(=O)N[C@@H](Cc4ccccc4)C(=O)O)[nH]c3c2)cc1 [Example 119] | 139% | – | – | –
N=C(N)Nc1ccc(C(=O)Oc2ccc(CCC(=O)Nc3ccc(CC(=O)O)cc3)c(Cl)c2)cc1 [Example 11] | – | 0.76 nM | – | 0.45 nM
N=C(N)Nc1ccc(C(=O)Oc2ccc(CCC(=O)N(Cc3cccc(C(=O)O)c3)Cc3cccc(C(=O)O)c3)c(Cl)c2)cc1 [Example 93] | – | 0.4 nM | – | 0.56 nM
N=C(N)Nc1ccc(C(=O)Oc2ccc(CCN(CC(=O)O)C(=O)Cc3cccc(C(=O)O)c3)c(Cl)c2)cc1 [Example 66] | – | 0.35 nM | – | 0.45 nM
N=C(N)Nc1ccc(C(=O)Oc2ccc(CCCCC(=O)N[C@@H](Cc3ccccc3)C(=O)O)c(Cl)c2)cc1 [Example 37] | – | 0.38 nM | – | 0.34 nM
N=C(N)Nc1ccc(C(=O)Oc2ccc(CCC(=O)NC(Cc3ccccc3)C(=O)O)c(Cl)c2)cc1 (stereo not shown) [Example 131] | – | 0.51 nM | – | 0.4 nM
N=C(N)Nc1ccc(C(=O)Oc2ccc(CC(=O)N[C@@H](Cc3ccccc3)C(=O)O)c(C(F)(F)F)c2)cc1 [Example 25] | – | 0.29 nM | – | 0.25 nM
COc1ccc(C[C@H](NC(=O)Cc2ccc(OC(=O)c3ccc(NC(=N)N)cc3)cc2Cl)C(=O)O)cc1 [Example 16] | 170% | – | – | –
N=C(N)Nc1ccc(C(=O)Oc2ccc(CCC(=O)N(CC(=O)O)c3cccc(CC(=O)O)c3)c(Cl)c2)cc1 [Example 41] | 177% | – | – | –
N=C(N)Nc1ccc(C(=O)Oc2ccc(CC(=O)N(CCc3ccccc3)CC(=O)O)c(Cl)c2)cc1 [Example 35] | – | 0.44 nM | – | 0.28 nM
N=C(N)Nc1ccc(C(=O)Oc2ccc(CC(=O)N[C@@H](Cc3ccccc3)C(=O)O)c(Cl)c2Cl)cc1 [Example 26] | – | 0.29 nM | – | 0.18 nM
CN(C(=O)Cc1ccc(OC(=O)c2ccc(NC(=N)N)cc2)cc1Cl)[C@@H](Cc1ccccc1)C(=O)O [Example 33] | – | 0.88 nM | – | 0.6 nM
N=C(N)Nc1ccc(C(=O)Oc2cc(F)c(CC(=O)N[C@@H](Cc3ccccc3)C(=O)O)c(F)c2)cc1 [Example 24] | – | 0.21 nM | – | 0.17 nM
N=C(N)Nc1ccc(C(=O)Oc2ccc(CC(=O)N[C@@H](Cc3ccccc3)C(=O)O)c(C3CC3)c2)cc1 [Example 34] | – | 0.36 nM | – | 0.24 nM
N=C(N)Nc1ccc(C(=O)Oc2cc(Cl)c(CC(=O)N[C@@H](Cc3ccccc3)C(=O)O)c(Cl)c2)cc1 [Example 27] | – | 0.26 nM | – | 0.19 nM
N=C(N)Nc1ccc(C(=O)Oc2ccc(CC(=O)N[C@@H](Cc3ccccc3F)C(=O)O)c(Cl)c2)cc1 [Example 29] | – | 0.31 nM | – | 0.21 nM
N=C(N)Nc1ccc(C(=O)Oc2ccc(CC(=O)N(CCC(=O)O)[C@@H](Cc3ccccc3)C(=O)O)c(Cl)c2)cc1 [Example 54] | – | 0.42 nM | – | 0.38 nM

— patent US9199927B2, “Guanidinobenzoic acid compound” (Astellas Pharma Inc., priority 2011, dated 2015)
